In ChEMBL document CHEMBL5649166, “RIP3 induces apoptosis independent of pronecrotic kinase activity” (Mol Cell, 2014):

Assays:
[1] = target: T1, Megakaryocyte-associated tyrosine-protein kinase (Homo sapiens) (UniProt P42679); assay: Inhibition of human CTK/MATK using poly[Glu:Tyr] (4:1) as substrate at 1 uM in presence of 32P-ATP by Hotspot assay relative to control; values are per cent of control
T1 sequence (whole entry): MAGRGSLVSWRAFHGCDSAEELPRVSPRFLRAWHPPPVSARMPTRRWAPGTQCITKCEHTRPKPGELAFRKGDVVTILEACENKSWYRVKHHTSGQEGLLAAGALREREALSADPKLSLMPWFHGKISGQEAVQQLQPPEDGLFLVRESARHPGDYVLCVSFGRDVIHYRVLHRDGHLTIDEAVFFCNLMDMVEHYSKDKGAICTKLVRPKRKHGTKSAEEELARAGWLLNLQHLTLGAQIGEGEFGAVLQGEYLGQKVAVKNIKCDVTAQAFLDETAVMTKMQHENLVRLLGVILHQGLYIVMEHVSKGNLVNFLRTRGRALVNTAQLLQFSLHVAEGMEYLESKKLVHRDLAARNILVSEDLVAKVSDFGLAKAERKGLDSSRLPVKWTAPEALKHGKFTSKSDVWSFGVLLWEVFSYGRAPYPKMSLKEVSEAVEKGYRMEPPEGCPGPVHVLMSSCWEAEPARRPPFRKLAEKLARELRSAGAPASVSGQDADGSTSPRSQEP

[2] = target: T2, Muscle, skeletal receptor tyrosine-protein kinase (Homo sapiens) (UniProt O15146); assay: Inhibition of human MUSK using myelin basic protein as substrate at 1 uM in presence of 32P-ATP by Hotspot assay relative to control; values are per cent of control
T2 sequence (whole entry): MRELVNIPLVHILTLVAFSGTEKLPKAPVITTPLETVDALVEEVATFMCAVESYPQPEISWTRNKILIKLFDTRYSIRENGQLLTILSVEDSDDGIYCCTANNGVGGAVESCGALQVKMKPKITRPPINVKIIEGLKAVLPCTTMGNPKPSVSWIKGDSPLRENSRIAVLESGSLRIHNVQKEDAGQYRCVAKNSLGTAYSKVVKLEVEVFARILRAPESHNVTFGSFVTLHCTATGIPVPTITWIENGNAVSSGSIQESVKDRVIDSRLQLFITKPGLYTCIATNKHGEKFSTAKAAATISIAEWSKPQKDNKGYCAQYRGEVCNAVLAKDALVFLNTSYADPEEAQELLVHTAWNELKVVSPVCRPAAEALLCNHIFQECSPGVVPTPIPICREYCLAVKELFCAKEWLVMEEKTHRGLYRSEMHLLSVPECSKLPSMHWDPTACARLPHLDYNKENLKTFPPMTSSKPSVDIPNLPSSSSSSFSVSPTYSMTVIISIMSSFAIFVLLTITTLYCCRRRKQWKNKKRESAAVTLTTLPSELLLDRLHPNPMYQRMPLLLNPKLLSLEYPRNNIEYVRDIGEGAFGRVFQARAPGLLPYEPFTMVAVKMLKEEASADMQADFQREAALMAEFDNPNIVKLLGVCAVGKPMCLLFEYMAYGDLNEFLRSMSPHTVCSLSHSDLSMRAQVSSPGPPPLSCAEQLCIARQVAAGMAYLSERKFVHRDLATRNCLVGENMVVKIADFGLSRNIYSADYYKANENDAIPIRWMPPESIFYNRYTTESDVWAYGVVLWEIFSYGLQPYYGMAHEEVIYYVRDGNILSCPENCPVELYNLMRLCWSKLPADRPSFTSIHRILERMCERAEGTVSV

[3] = target: T3, Dual specificity tyrosine-phosphorylation-regulated kinase 4 (Homo sapiens) (UniProt Q9NR20); assay: Inhibition of human DYRK4 using RRRFRPASPLRGPPK as substrate at 1 uM in presence of 32P-ATP by Hotspot assay relative to control; values are per cent of control
T3 sequence (whole entry): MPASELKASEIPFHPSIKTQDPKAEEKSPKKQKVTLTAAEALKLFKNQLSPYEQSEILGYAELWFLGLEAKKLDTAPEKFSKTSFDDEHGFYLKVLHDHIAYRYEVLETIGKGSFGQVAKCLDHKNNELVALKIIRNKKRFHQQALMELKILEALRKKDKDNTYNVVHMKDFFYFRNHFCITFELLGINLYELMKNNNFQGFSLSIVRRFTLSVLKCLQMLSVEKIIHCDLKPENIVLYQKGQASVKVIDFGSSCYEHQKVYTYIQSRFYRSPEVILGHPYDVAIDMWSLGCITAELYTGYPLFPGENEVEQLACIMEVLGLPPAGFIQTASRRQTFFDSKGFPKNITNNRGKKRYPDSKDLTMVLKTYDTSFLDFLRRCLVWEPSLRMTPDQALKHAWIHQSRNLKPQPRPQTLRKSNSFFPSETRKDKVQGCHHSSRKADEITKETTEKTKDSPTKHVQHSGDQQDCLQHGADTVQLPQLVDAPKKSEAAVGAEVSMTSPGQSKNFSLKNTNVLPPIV

[4] = target: Leukocyte tyrosine kinase receptor (Homo sapiens) (UniProt P29376); assay: Inhibition of human TYK1/LTK using EAIYAAPFAKKK as substrate at 1 uM in presence of 32P-ATP by Hotspot assay relative to control; values are per cent of control
[5] = target: Serine/threonine-protein kinase MARK1 (Homo sapiens) (UniProt Q9P0L2); assay: Inhibition of human MARK1 using KKKVSRSGLYRSPSMPENLNRPR as substrate at 1 uM in presence of 32P-ATP by Hotspot assay relative to control; values are per cent of control
HT-29 = assay: Inhibition of TNF-alpha induced necroptosis in human HT-29 cells assessed as increase in cell viability incubated for 24 hrs in presence of zVAD and SMAC007 by Cell Titer-Glo luminescent cell viability assay; assay type: functional, cell-based; conditions: dose 0.01-3 µM

Sequence of Leukocyte tyrosine kinase receptor (Homo sapiens) (P29376 whole entry): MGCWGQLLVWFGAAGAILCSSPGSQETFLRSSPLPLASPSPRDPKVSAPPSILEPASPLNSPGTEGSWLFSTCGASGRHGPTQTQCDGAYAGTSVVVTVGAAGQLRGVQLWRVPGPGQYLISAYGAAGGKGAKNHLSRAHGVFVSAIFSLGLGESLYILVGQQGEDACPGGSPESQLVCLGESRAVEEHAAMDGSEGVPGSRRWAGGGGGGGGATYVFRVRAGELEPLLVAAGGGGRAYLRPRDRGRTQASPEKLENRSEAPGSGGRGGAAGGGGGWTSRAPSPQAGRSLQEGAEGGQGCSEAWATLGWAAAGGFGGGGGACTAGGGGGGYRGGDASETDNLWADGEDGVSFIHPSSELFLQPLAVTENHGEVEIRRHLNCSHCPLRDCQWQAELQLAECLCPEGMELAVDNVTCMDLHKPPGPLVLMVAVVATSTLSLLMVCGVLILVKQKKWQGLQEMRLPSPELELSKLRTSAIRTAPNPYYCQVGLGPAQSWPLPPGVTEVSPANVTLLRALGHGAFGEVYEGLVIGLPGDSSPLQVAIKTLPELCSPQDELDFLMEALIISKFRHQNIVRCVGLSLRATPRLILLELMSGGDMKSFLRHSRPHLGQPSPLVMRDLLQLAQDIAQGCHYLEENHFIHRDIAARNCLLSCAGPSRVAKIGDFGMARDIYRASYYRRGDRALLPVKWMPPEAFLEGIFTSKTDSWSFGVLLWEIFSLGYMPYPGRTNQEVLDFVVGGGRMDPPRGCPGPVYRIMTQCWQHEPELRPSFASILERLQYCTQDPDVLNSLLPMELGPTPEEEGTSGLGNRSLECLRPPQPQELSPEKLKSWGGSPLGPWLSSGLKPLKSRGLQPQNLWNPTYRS
Sequence of Serine/threonine-protein kinase MARK1 (Homo sapiens) (Q9P0L2 whole entry, looked up): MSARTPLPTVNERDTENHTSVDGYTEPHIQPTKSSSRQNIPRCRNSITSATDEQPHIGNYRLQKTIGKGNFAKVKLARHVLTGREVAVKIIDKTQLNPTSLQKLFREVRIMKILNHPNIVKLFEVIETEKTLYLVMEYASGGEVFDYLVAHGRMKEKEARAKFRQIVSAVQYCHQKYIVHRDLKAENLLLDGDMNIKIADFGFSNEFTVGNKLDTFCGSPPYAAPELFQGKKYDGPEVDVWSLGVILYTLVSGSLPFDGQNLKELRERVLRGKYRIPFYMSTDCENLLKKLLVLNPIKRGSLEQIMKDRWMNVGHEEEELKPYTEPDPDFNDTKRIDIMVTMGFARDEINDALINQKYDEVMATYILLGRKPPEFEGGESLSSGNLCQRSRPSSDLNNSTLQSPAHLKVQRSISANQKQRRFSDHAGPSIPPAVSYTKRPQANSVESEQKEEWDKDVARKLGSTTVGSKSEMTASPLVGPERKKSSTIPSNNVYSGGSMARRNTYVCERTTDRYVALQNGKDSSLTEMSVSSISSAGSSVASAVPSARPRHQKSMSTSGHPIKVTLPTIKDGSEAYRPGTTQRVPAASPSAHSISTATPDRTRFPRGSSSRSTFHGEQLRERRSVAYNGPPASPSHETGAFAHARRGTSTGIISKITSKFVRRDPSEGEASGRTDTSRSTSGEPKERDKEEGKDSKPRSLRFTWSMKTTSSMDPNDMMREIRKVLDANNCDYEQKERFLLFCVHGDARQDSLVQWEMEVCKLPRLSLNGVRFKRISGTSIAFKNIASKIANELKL

Compound | residual activity [1] [%] | residual activity [2] [%] | residual activity [3] [%] | residual activity [4] [%] | residual activity [5] [%] | inhibition (HT-29)
Cc1cc(-c2cnc(N)c3c(-c4ccc5scnc5c4)csc23)n(C)n1 | 79.2 | 105 | 98.2 | 73.8 | 103 | Dose-Dependent Effect
CC(C)S(=O)(=O)c1ccc2nccc(Nc3ccc4scnc4c3)c2c1 | 98.5 | 98.1 | 102 | 98.3 | 96.3 | Dose-Dependent Effect
CNC(=O)c1ccc2c(c1)ncn2-c1ccc(CC(=O)OC(C)(C)C)cc1 | 93.7 | 103 | 99.6 | 101 | 96.2 | Dose-Dependent Effect
